Several values for one entry are separate records, joined by “and”; a condition that tells them apart may be missing. Equal values may be shown once. Read-outs that look alike come from different tables or passages of the source.
Key:
[1] = stored at 4° C.; cited from earlier work
[2] = Zinc complexation/precipitation of GLP-1 molecules, protein content of supernatant by 280 nm absorbance (Example 1); format: physicochemical; conditions: 0.1M HEPES pH 7.4, about 0.1 mg/mL, 22° C., about 18 hours
Protocol: Individual aliquots of 5 different GLP-1 molecules were prepared by well-known, solid phase peptide synthesis and were lyophilized in small vials. Portions of 0.1M HEPES (N-[2-hydroxyethyl]piperazine-N′-[2-ethanesulfonic acid]) buffers at pH 7.4 containing various levels of zinc chloride were added to the aliquots to obtain a protein concentration of about 0.1 mg/mL. The samples were mixed and stored at ambient temperature (22° C.) for about 18 hours. The mixtures were then centrifuged (Fisher Model 235C micro-centrifuge) for 5 minutes. The clear supernatants were pipetted from the tubes. The protein content of the supernatants was estimated by measuring their absorbance at 280 nm in a spectrophotometer (Gilford 260). The theoretical absorbance value for a 0.1 mg/mL solution of the GLP-1 molecules at this wavelength in the 1 cm cuvettes is 0.207.

[3] = intravenous infusion, cited from earlier work
[4] = Zinc precipitation of GLP-1 (7-36)NH2, 280 nm absorbance and zinc by atomic absorption in supernatant and redissolved precipitate (Example 2); format: physicochemical
Protocol: 5 mg of GLP-1 (7-36)NH2 was completely dissolved in 2.5 ML of pH 7.4, zinc-free 0.1M HEPES buffer. An additional 2.5 mL of pH 7.4, 0.1M HEPES buffer containing 0.6 mM zinc chloride was quickly added. The approximate molar ratio of zinc to GLP-1 (7-36)NH2 in this sample is 1 to 1. The solution immediately became cloudy and precipitation soon formed. The mixture was stored at ambient temperature (22° C.) for 18 hours.
The precipitate became firmly attached to the bottom of the glass vial. The supernatant was completely decanted by pipette. The precipitate was then completely dissolved in 5.0 mL of 0.1N hydrochloric acid. The absorbance at 280 nm was determined for both the supernatant and redissolved precipitate solutions. The zinc levels in these solutions were quantitated by atomic absorption spectrophotometry.

[5] = Zn/GLP-1 molecule molar ratio 0, theoretical absorbance 0.207
[6] = Zn/GLP-1 molecule molar ratio 0.3
[7] = Zn/GLP-1 molecule molar ratio 0.5
[8] = Zn/GLP-1 molecule molar ratio 0.7
[9] = Zn/GLP-1 molecule molar ratio 1.0
[10] = Zn/GLP-1 molecule molar ratio 3.0
[11] = Patients With Maturity Onset Diabetes

Substance	280 nm Absorbance of supernatant [2, 5]	280 nm Absorbance of supernatant [2, 6]	280 nm Absorbance of supernatant [2, 7]	280 nm Absorbance of supernatant [2, 8]	280 nm Absorbance of supernatant [2, 9]	280 nm Absorbance of supernatant [2, 10]	other results
GLP-1 (7-37)	–	–	–	–	–	–	Time after sample preparation at which by-products were found [1]: eleven
α-methly-Ala^8-GLP-1(7-36)NH2 [α-methyl-Ala^8-GLP-1 (7-36)NH2]	0.163	0.134	0.098	0.079	0.076	0.055	–
His^7-Ala-Glu-Gly^10-Thr-Phe-Thr-Ser-Asp15-Val-Ser-Ser-Tyr-Leu^20-Glu-Gly-Gln-Ala-Ala^25-Lys-Glu-Phe-Ile-Ala^30-Trp-Leu-Val-Lys-Gly^35-Arg-NH2 [GLP-1 (7-36)NH2]	0.172	0.099	0.057	0.035	0.039	0.048	Meal glycemia ([3]; Normal Subjects, twice normal serum concentrations): Unchanged; Endogenous insulin secretion in response to a meal ([3]; Normal Subjects): Unchanged; Free fatty acids ([3]; Normal Subjects): Reduced (3); Endogenous insulin secretion in response to a meal [3, 11]: Increased; Fasting glucagon [3, 11]: Reduced; Fasting glycemia [3, 11]: Reduced; Free fatty acids [3, 11]: Reduced (2); Meal glycemia [3, 11]: Reduced; Post-prandial glucagon [3, 11]: Reduced; Zinc Concentration in Parts per Million ([4]; Redissolved Precipitate (5 ml)): 13.3 Parts per Million; 280 nm Absorbance ([4]; Redissolved Precipitate (5 ml) in 0.1N hydrochloric acid): 1.932; Zinc Concentration in Parts per Million ([4]; Supernatant (5 ml)): 9.02 Parts per Million; 280 nm Absorbance ([4]; Supernatant (5 ml), zinc to peptide about 1 to 1, pH 7.4 HEPES, 22° C., 18 hours): 0.118; zinc concentration of the redissolved precipitate solution ([4]; equivalent of 13.3 parts per million): 203 µM; GLP-1 (7-36)NH2 concentration of the redissolved precipitate ([4]; from 280 nm absorbance 1.932): 0.933 mg/ml and 283 μM; molar ratio of zinc to GLP-1 (7-36)NH2 in the precipitate ([4]; ratio to 1): 0.717; precipitation from the solution when zinc-containing HEPES solution was added ([4]; zinc to peptide about 1 to 1, pH 7.4): most of the GLP-1 (7-36)NH2 precipitated from the solution
Val^8-GLP-1(7-37) OH [Val^8-GLP-1 (7-37)OH]	0.187	0.191	0.184	0.180	0.173	0.110	–

More lines, main results first:

280 nm Absorbance of supernatant [2, 5]	280 nm Absorbance of supernatant [2, 6]	280 nm Absorbance of supernatant [2, 7]	280 nm Absorbance of supernatant [2, 8]	280 nm Absorbance of supernatant [2, 9]	280 nm Absorbance of supernatant [2, 10]	Substance	other results
0.136	0.079	0.070	0.058	0.057	0.044	Gly^8-GLP-1(7-36)NH2 [Gly^8-GLP-1 (7-36)NH2]	–
0.167	0.113	0.082	0.069	0.065	0.055	Gly^8-Gln^21-GLP-1(7-37)OH [Gly^8-Gln^21 GLP-1 (7-37)OH]	–
